Data on 1 compound can be found in publication PMC8147764, “Heterologous Expression, Engineering and Characterization of a Novel Laccase of Agrocybe pediades with Promising Properties as Biocatalyst” (Journal of Fungi, 2021).

The experiment addresses T1, ApL (A. pediades laccase) (Agrocybe pediades, UniProt A0A8H4QKE8, V194E/N433D).
T1 construct: gene D9613_012768
The settings on record: read-out: IC50 (mM or v/v % ^a); DM variant; ABTS about 3 mM, citrate-phosphate pH 3; fluoride, TNC site.

Each structure is given as a SMILES string.

`F` [NaF]: the IC50 was 0.051 ± 0.002 mM.
